# Reference: ChEMBL document CHEMBL4627246, “Pyroglutamide-Based P2X7 Receptor Antagonists Targeting Inflammatory Bowel Disease” (J Med Chem, 2020)
# Test system: MDA-MB-231
# Assay: Cytotoxicity against human MDA-MB-231 cells assessed as effect on cell growth at 10 uM incubated for 48 hrs by sulforhodamine B assay
# Assay type: cell-based
# Settings: mda-mb-231, 48 h
row,Structure (SMILES),Activity
1,O=C(NCCc1ccccc1)[C@@H]1CCC(=O)N1Cc1ccc(Cl)cc1Cl,Non-Toxic
2,O=C1N[C@H](C(=O)NCc2ccc(Cl)cc2Cl)C/C1=N\O (stereo in doubt),Non-Toxic
3,CN1C(=O)CC[C@H]1C(=O)NCc1cccc(C(F)(F)F)c1Cl [GSK1482160],Non-Toxic
4,CN(Cc1ccccc1)C(=O)[C@@H]1CCC(=O)N1Cc1ccc(Cl)cc1Cl,Non-Toxic

# Test system: SK-MEL-5
# Assay: Cytotoxicity against human SK-MEL-5 cells assessed as effect on cell growth at 10 uM incubated for 48 hrs by sulforhodamine B assay
# Assay type: cell-based
# Settings: sk-mel-5, 48 h
row,Structure (SMILES),Activity
1,O=C(NCCc1ccccc1)[C@@H]1CCC(=O)N1Cc1ccc(Cl)cc1Cl,Non-Toxic
2,O=C1N[C@H](C(=O)NCc2ccc(Cl)cc2Cl)C/C1=N\O (stereo in doubt),Non-Toxic
3,CN1C(=O)CC[C@H]1C(=O)NCc1cccc(C(F)(F)F)c1Cl [GSK1482160],Non-Toxic
4,CN(Cc1ccccc1)C(=O)[C@@H]1CCC(=O)N1Cc1ccc(Cl)cc1Cl,Non-Toxic

# Test system: HOP-62
# Assay: Cytotoxicity against human HOP62 cells assessed as effect on cell growth at 10 uM incubated for 48 hrs by sulforhodamine B assay
# Assay type: cell-based
# Settings: hop-62, 48 h
row,Structure (SMILES),Activity
1,O=C(NCCc1ccccc1)[C@@H]1CCC(=O)N1Cc1ccc(Cl)cc1Cl,Non-Toxic
2,O=C1N[C@H](C(=O)NCc2ccc(Cl)cc2Cl)C/C1=N\O (stereo in doubt),Non-Toxic
3,CN1C(=O)CC[C@H]1C(=O)NCc1cccc(C(F)(F)F)c1Cl [GSK1482160],Non-Toxic
4,CN(Cc1ccccc1)C(=O)[C@@H]1CCC(=O)N1Cc1ccc(Cl)cc1Cl,Non-Toxic

# Test system: CCRF-CEM
# Assay: Cytotoxicity against human CCRF-CEM cells assessed as effect on cell growth at 10 uM incubated for 48 hrs by sulforhodamine B assay
# Assay type: cell-based
# Settings: not given
row,Structure (SMILES),Activity
1,O=C(NCCc1ccccc1)[C@@H]1CCC(=O)N1Cc1ccc(Cl)cc1Cl,Non-Toxic
2,O=C1N[C@H](C(=O)NCc2ccc(Cl)cc2Cl)C/C1=N\O (stereo in doubt),Non-Toxic
3,CN1C(=O)CC[C@H]1C(=O)NCc1cccc(C(F)(F)F)c1Cl [GSK1482160],Non-Toxic
4,CN(Cc1ccccc1)C(=O)[C@@H]1CCC(=O)N1Cc1ccc(Cl)cc1Cl,Non-Toxic

# Test system: OVCAR-4
# Assay: Cytotoxicity against human OVCAR4 cells assessed as effect on cell growth at 10 uM incubated for 48 hrs by sulforhodamine B assay
# Assay type: cell-based
# Settings: ovcar-4, 48 h
row,Structure (SMILES),Activity
1,O=C(NCCc1ccccc1)[C@@H]1CCC(=O)N1Cc1ccc(Cl)cc1Cl,Non-Toxic
2,O=C1N[C@H](C(=O)NCc2ccc(Cl)cc2Cl)C/C1=N\O (stereo in doubt),Non-Toxic
3,CN1C(=O)CC[C@H]1C(=O)NCc1cccc(C(F)(F)F)c1Cl [GSK1482160],Non-Toxic
4,CN(Cc1ccccc1)C(=O)[C@@H]1CCC(=O)N1Cc1ccc(Cl)cc1Cl,Non-Toxic

# Test system: RXF 393
# Assay: Cytotoxicity against human RXF393 cells assessed as effect on cell growth at 10 uM incubated for 48 hrs by sulforhodamine B assay
# Assay type: cell-based
# Settings: rxf 393, 48 h
row,Structure (SMILES),Activity
1,O=C(NCCc1ccccc1)[C@@H]1CCC(=O)N1Cc1ccc(Cl)cc1Cl,Non-Toxic
2,O=C1N[C@H](C(=O)NCc2ccc(Cl)cc2Cl)C/C1=N\O (stereo in doubt),Non-Toxic
3,CN1C(=O)CC[C@H]1C(=O)NCc1cccc(C(F)(F)F)c1Cl [GSK1482160],Non-Toxic
4,CN(Cc1ccccc1)C(=O)[C@@H]1CCC(=O)N1Cc1ccc(Cl)cc1Cl,Non-Toxic

# Test system: K562
# Assay: Cytotoxicity against human K562 cells assessed as effect on cell growth at 10 uM incubated for 48 hrs by sulforhodamine B assay
# Assay type: cell-based
# Settings: k562, 48 h
row,Structure (SMILES),Activity
1,O=C(NCCc1ccccc1)[C@@H]1CCC(=O)N1Cc1ccc(Cl)cc1Cl,Non-Toxic
2,O=C1N[C@H](C(=O)NCc2ccc(Cl)cc2Cl)C/C1=N\O (stereo in doubt),Non-Toxic
3,CN1C(=O)CC[C@H]1C(=O)NCc1cccc(C(F)(F)F)c1Cl [GSK1482160],Non-Toxic
4,CN(Cc1ccccc1)C(=O)[C@@H]1CCC(=O)N1Cc1ccc(Cl)cc1Cl,Non-Toxic

# Test system: CAKI-1
# Assay: Growth inhibition of human Caki1 cells assessed as growth percentage at 10 uM incubated for 48 hrs by sulforhodamine B assay
# Assay type: cell-based
# Settings: caki-1, 48 h
row,Structure (SMILES),Activity
1,O=C(NCCc1ccccc1)[C@@H]1CCC(=O)N1Cc1ccc(Cl)cc1Cl,Non-Toxic
2,O=C1N[C@H](C(=O)NCc2ccc(Cl)cc2Cl)C/C1=N\O (stereo in doubt),Non-Toxic
3,CN1C(=O)CC[C@H]1C(=O)NCc1cccc(C(F)(F)F)c1Cl [GSK1482160],Non-Toxic
4,CN(Cc1ccccc1)C(=O)[C@@H]1CCC(=O)N1Cc1ccc(Cl)cc1Cl,Non-Toxic

# Test system: BT-549
# Assay: Cytotoxicity against human BT549 cells assessed as effect on cell growth at 10 uM incubated for 48 hrs by sulforhodamine B assay
# Assay type: cell-based
# Settings: bt-549, 48 h
row,Structure (SMILES),Activity
1,O=C(NCCc1ccccc1)[C@@H]1CCC(=O)N1Cc1ccc(Cl)cc1Cl,Non-Toxic
2,O=C1N[C@H](C(=O)NCc2ccc(Cl)cc2Cl)C/C1=N\O (stereo in doubt),Non-Toxic
3,CN1C(=O)CC[C@H]1C(=O)NCc1cccc(C(F)(F)F)c1Cl [GSK1482160],Non-Toxic
4,CN(Cc1ccccc1)C(=O)[C@@H]1CCC(=O)N1Cc1ccc(Cl)cc1Cl,Non-Toxic

# Test system: OVCAR-3
# Assay: Cytotoxicity against human OVCAR3 cells assessed as effect on cell growth at 10 uM incubated for 48 hrs by sulforhodamine B assay
# Assay type: cell-based
# Settings: ovcar-3, 48 h
row,Structure (SMILES),Activity
1,O=C(NCCc1ccccc1)[C@@H]1CCC(=O)N1Cc1ccc(Cl)cc1Cl,Non-Toxic
2,O=C1N[C@H](C(=O)NCc2ccc(Cl)cc2Cl)C/C1=N\O (stereo in doubt),Non-Toxic
3,CN1C(=O)CC[C@H]1C(=O)NCc1cccc(C(F)(F)F)c1Cl [GSK1482160],Non-Toxic
4,CN(Cc1ccccc1)C(=O)[C@@H]1CCC(=O)N1Cc1ccc(Cl)cc1Cl,Non-Toxic

# Test system: MDA-MB-435
# Assay: Cytotoxicity against human MDA-MB-435 cells assessed as effect on cell growth at 10 uM incubated for 48 hrs by sulforhodamine B assay
# Assay type: cell-based
# Settings: mda-mb-435, 48 h
row,Structure (SMILES),Activity
1,O=C(NCCc1ccccc1)[C@@H]1CCC(=O)N1Cc1ccc(Cl)cc1Cl,Non-Toxic
2,O=C1N[C@H](C(=O)NCc2ccc(Cl)cc2Cl)C/C1=N\O (stereo in doubt),Non-Toxic
3,CN1C(=O)CC[C@H]1C(=O)NCc1cccc(C(F)(F)F)c1Cl [GSK1482160],Non-Toxic
4,CN(Cc1ccccc1)C(=O)[C@@H]1CCC(=O)N1Cc1ccc(Cl)cc1Cl,Non-Toxic

# Test system: MCF7
# Assay: Cytotoxicity against human MCF7 cells assessed as effect on cell growth at 10 uM incubated for 48 hrs by sulforhodamine B assay
# Assay type: cell-based
# Settings: mcf7, 48 h
row,Structure (SMILES),Activity
1,O=C(NCCc1ccccc1)[C@@H]1CCC(=O)N1Cc1ccc(Cl)cc1Cl,Non-Toxic
2,O=C1N[C@H](C(=O)NCc2ccc(Cl)cc2Cl)C/C1=N\O (stereo in doubt),Non-Toxic
3,CN1C(=O)CC[C@H]1C(=O)NCc1cccc(C(F)(F)F)c1Cl [GSK1482160],Non-Toxic
4,CN(Cc1ccccc1)C(=O)[C@@H]1CCC(=O)N1Cc1ccc(Cl)cc1Cl,Non-Toxic

# Test system: SK-MEL-2
# Assay: Cytotoxicity against human SK-MEL-2 cells assessed as effect on cell growth at 10 uM incubated for 48 hrs by sulforhodamine B assay
# Assay type: cell-based
# Settings: sk-mel-2, 48 h
row,Structure (SMILES),Activity
1,O=C(NCCc1ccccc1)[C@@H]1CCC(=O)N1Cc1ccc(Cl)cc1Cl,Non-Toxic
2,O=C1N[C@H](C(=O)NCc2ccc(Cl)cc2Cl)C/C1=N\O (stereo in doubt),Non-Toxic
3,CN1C(=O)CC[C@H]1C(=O)NCc1cccc(C(F)(F)F)c1Cl [GSK1482160],Non-Toxic
4,CN(Cc1ccccc1)C(=O)[C@@H]1CCC(=O)N1Cc1ccc(Cl)cc1Cl,Non-Toxic

# Test system: SF-268
# Assay: Cytotoxicity against human SF268 cells assessed as effect on cell growth at 10 uM incubated for 48 hrs by sulforhodamine B assay
# Assay type: cell-based
# Settings: sf-268, 48 h
row,Structure (SMILES),Activity
1,O=C(NCCc1ccccc1)[C@@H]1CCC(=O)N1Cc1ccc(Cl)cc1Cl,Non-Toxic
2,O=C1N[C@H](C(=O)NCc2ccc(Cl)cc2Cl)C/C1=N\O (stereo in doubt),Non-Toxic
3,CN1C(=O)CC[C@H]1C(=O)NCc1cccc(C(F)(F)F)c1Cl [GSK1482160],Non-Toxic
4,CN(Cc1ccccc1)C(=O)[C@@H]1CCC(=O)N1Cc1ccc(Cl)cc1Cl,Non-Toxic

# Test system: Hs-578T
# Assay: Cytotoxicity against human Hs 578T cells assessed as effect on cell growth at 10 uM incubated for 48 hrs by sulforhodamine B assay
# Assay type: cell-based
# Settings: not given
row,Structure (SMILES),Activity
1,O=C(NCCc1ccccc1)[C@@H]1CCC(=O)N1Cc1ccc(Cl)cc1Cl,Non-Toxic
2,O=C1N[C@H](C(=O)NCc2ccc(Cl)cc2Cl)C/C1=N\O (stereo in doubt),Non-Toxic
3,CN1C(=O)CC[C@H]1C(=O)NCc1cccc(C(F)(F)F)c1Cl [GSK1482160],Non-Toxic
4,CN(Cc1ccccc1)C(=O)[C@@H]1CCC(=O)N1Cc1ccc(Cl)cc1Cl,Non-Toxic

# Test system: LOX IMVI
# Assay: Cytotoxicity against human LOXIMVI cells assessed as effect on cell growth at 10 uM incubated for 48 hrs by sulforhodamine B assay
# Assay type: cell-based
# Settings: not given
row,Structure (SMILES),Activity
1,O=C(NCCc1ccccc1)[C@@H]1CCC(=O)N1Cc1ccc(Cl)cc1Cl,Non-Toxic
2,O=C1N[C@H](C(=O)NCc2ccc(Cl)cc2Cl)C/C1=N\O (stereo in doubt),Non-Toxic
3,CN1C(=O)CC[C@H]1C(=O)NCc1cccc(C(F)(F)F)c1Cl [GSK1482160],Non-Toxic
4,CN(Cc1ccccc1)C(=O)[C@@H]1CCC(=O)N1Cc1ccc(Cl)cc1Cl,Non-Toxic

# Test system: NCI-H226
# Assay: Cytotoxicity against human NCI-H226 cells assessed as effect on cell growth at 10 uM incubated for 48 hrs by sulforhodamine B assay
# Assay type: cell-based
# Settings: nci-h226, 48 h
row,Structure (SMILES),Activity
1,O=C(NCCc1ccccc1)[C@@H]1CCC(=O)N1Cc1ccc(Cl)cc1Cl,Non-Toxic
2,O=C1N[C@H](C(=O)NCc2ccc(Cl)cc2Cl)C/C1=N\O (stereo in doubt),Non-Toxic
3,CN1C(=O)CC[C@H]1C(=O)NCc1cccc(C(F)(F)F)c1Cl [GSK1482160],Non-Toxic
4,CN(Cc1ccccc1)C(=O)[C@@H]1CCC(=O)N1Cc1ccc(Cl)cc1Cl,Non-Toxic

# Test system: SK-MEL-28
# Assay: Cytotoxicity against human SK-MEL-28 cells assessed as effect on cell growth at 10 uM incubated for 48 hrs by sulforhodamine B assay
# Assay type: cell-based
# Settings: sk-mel-28, 48 h
row,Structure (SMILES),Activity
1,O=C(NCCc1ccccc1)[C@@H]1CCC(=O)N1Cc1ccc(Cl)cc1Cl,Non-Toxic
2,O=C1N[C@H](C(=O)NCc2ccc(Cl)cc2Cl)C/C1=N\O (stereo in doubt),Non-Toxic
3,CN1C(=O)CC[C@H]1C(=O)NCc1cccc(C(F)(F)F)c1Cl [GSK1482160],Non-Toxic
4,CN(Cc1ccccc1)C(=O)[C@@H]1CCC(=O)N1Cc1ccc(Cl)cc1Cl,Non-Toxic

# Test system: SN12C
# Assay: Cytotoxicity against human SN12C cells assessed as effect on cell growth at 10 uM incubated for 48 hrs by sulforhodamine B assay
# Assay type: cell-based
# Settings: not given
row,Structure (SMILES),Activity
1,O=C(NCCc1ccccc1)[C@@H]1CCC(=O)N1Cc1ccc(Cl)cc1Cl,Non-Toxic
2,O=C1N[C@H](C(=O)NCc2ccc(Cl)cc2Cl)C/C1=N\O (stereo in doubt),Non-Toxic
3,CN1C(=O)CC[C@H]1C(=O)NCc1cccc(C(F)(F)F)c1Cl [GSK1482160],Non-Toxic
4,CN(Cc1ccccc1)C(=O)[C@@H]1CCC(=O)N1Cc1ccc(Cl)cc1Cl,Non-Toxic

# Test system: UACC-257
# Assay: Cytotoxicity against human UACC257 cells assessed as effect on cell growth at 10 uM incubated for 48 hrs by sulforhodamine B assay
# Assay type: cell-based
# Settings: uacc-257, 48 h
row,Structure (SMILES),Activity
1,O=C(NCCc1ccccc1)[C@@H]1CCC(=O)N1Cc1ccc(Cl)cc1Cl,Non-Toxic
2,O=C1N[C@H](C(=O)NCc2ccc(Cl)cc2Cl)C/C1=N\O (stereo in doubt),Non-Toxic
3,CN1C(=O)CC[C@H]1C(=O)NCc1cccc(C(F)(F)F)c1Cl [GSK1482160],Non-Toxic
4,CN(Cc1ccccc1)C(=O)[C@@H]1CCC(=O)N1Cc1ccc(Cl)cc1Cl,Non-Toxic
